The source of these data is ChEMBL document CHEMBL1649575, “Antimicrobial susceptibility and mutations involved in clarithromycin resistance in Helicobacter pylori isolates from patients in the western central region of Colombia” (2009).

For assay [1], the system named is Helicobacter pylori. The assay can be described thus: Antimicrobial activity against Helicobacter pylori clinical isolate by Etest. The assay is classed as functional, organism-based.
For assay [2], the system named is Helicobacter pylori. The assay can be described thus: Antimicrobial activity against Helicobacter pylori clinical isolate expressing 23S rRNA A2142G mutant by Etest. The assay is classed as functional.
Assay [3] relates to Helicobacter pylori. The assay can be described thus: Antimicrobial activity against Helicobacter pylori clinical isolate expressing 23S rRNA A2143G mutant by Etest. The assay is classed as functional, organism-based.

Calls of active or inactive are those of the source. The calls are words filed in the database; no cut-off is given here. Where only a bound is given, the exact number is not on record here.

Take `CN(C)[C@@H]1C(O)=C(C(N)=O)C(=O)[C@@]2(O)C(O)=C3C(=O)c4c(O)cccc4[C@@](C)(O)[C@H]3C[C@@H]12`: the result in the assay with Helicobacter pylori [1] was Active.
Regarding `CC[C@H]1OC(=O)[C@H](C)[C@@H](O[C@H]2C[C@@](C)(OC)[C@@H](O)[C@H](C)O2)[C@H](C)[C@@H](O[C@@H]2O[C@H](C)C[C@H](N(C)C)[C@H]2O)[C@](C)(OC)C[C@@H](C)C(=O)[C@H](C)[C@@H](O)[C@]1(C)O` [CLARITHROMYCIN], the MIC (in general, the lowest concentration found to suppress growth) against Helicobacter pylori [2] is more than 256 µg/mL. In the assay with Helicobacter pylori [3], the result was inactive.
